Assay results reported in patent publication US20170190671A1, “BIS(ARYL)CATECHOL DERIVATIVES AS HERBICIDES” (E I DU PONT DE NEMOURS AND COMPANY, priority 2014, published 2017).

What was measured:
[1] = tested on: barnyardgrass (Echinochloa crus-galli); assay: Test B flooded paddy; type: in vivo; conditions: Echinochloa crus-galli, 336 h; 250 g ai/ha, Flood, 13 to 15 days, scale 0 (no effect) to 100 (complete control); read-out: Plant response rating, Barnyardgrass
Description: (§1) At time of treatment, test pots were flooded to 3 cm above the soil surface, treated by application of test compounds directly to the paddy water, and then maintained at that water depth for the duration of the test. Treated plants and controls were maintained in a greenhouse for 13 to 15 days, after which time all species were compared to controls and visually evaluated. […] A dash (-) response means no test result.

[2] = tested on: ducksalad (Heteranthera limosa); assay: Test B flooded paddy; type: in vivo; conditions: Heteranthera limosa, 336 h; 250 g ai/ha, Flood, 13 to 15 days, scale 0 (no effect) to 100 (complete control); read-out: Plant response rating, Ducksalad
Description: as §1

rice (Oryza sativa) = assay: Test B flooded paddy; type: in vivo; conditions: Oryza sativa, 336 h; 250 g ai/ha, Flood, 13 to 15 days, scale 0 (no effect) to 100 (complete control); read-out: Plant response rating, Rice
Description: as §1

[3] = tested on: sedge, umbrella (small-flower umbrella sedge, Cyperus difformis); assay: Test B flooded paddy; type: in vivo; conditions: Cyperus difformis, 336 h; 250 g ai/ha, Flood, 13 to 15 days, scale 0 (no effect) to 100 (complete control); read-out: Plant response rating, Sedge, Umbrella
Description: as §1

[4] = tested on: barnyardgrass (Echinochloa crus-galli); assay: Test A preemergence; type: in vivo; conditions: Echinochloa crus-galli, pre-emergence, 240 h; for pest or weed control at 125 g/ha: 125 g ai/ha
Summary of the method: (§2)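 Pre- and postemergence greenhouse screen. Soil: loam + sand. Spray carrier: solvent mixture, non-phytotoxic, with surfactant. Post timing at 1–2 leaves, height 2–10 cm. Readout: visual injury on a 0–100 scale roughly 10 days after application, untreated plants as reference.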

corn (Zea mays) [5] = assay: Test A preemergence; type: in vivo; conditions: 0 to 100 scale
Summary of the method: as §2

[6] = tested on: giant foxtail (Setaria faberii); assay: Test A preemergence; type: in vivo; conditions: Setaria faberi, pre-emergence, 240 h; for pest or weed control at 125 g/ha: 125 g ai/ha
Summary of the method: as §2

[7] = tested on: large (Lg) crabgrass (Digitaria sanguinalis); assay: Test A preemergence; type: in vivo; conditions: 0 to 100 scale
Summary of the method: as §2

[8] = tested on: morningglory (Ipomoea spp.); assay: Test A preemergence; type: in vivo; conditions: 0 to 100 scale
Summary of the method: as §2

[9] = tested on: pigweed (Amaranthus retroflexus); assay: Test A preemergence; type: in vivo; conditions: Amaranthus retroflexus, pre-emergence, 240 h; for pest or weed control at 125 g/ha: 125 g ai/ha
Summary of the method: as §2

[10] = tested on: velvetleaf (Abutilon theophrasti); assay: Test A preemergence; type: in vivo; conditions: 0 to 100 scale
Summary of the method: as §2

[11] = tested on: wheat (Triticum aestivum); assay: Test A preemergence; type: in vivo; conditions: 0 to 100 scale
Summary of the method: as §2

[12] = tested on: barnyardgrass (Echinochloa crus-galli); assay: Test A postemergence; type: in vivo; conditions: Echinochloa crus-galli, post-emergence, 240 h, 0 to 100 scale, read-out: Plant response rating, Barnyardgrass; for pest or weed control at 125 g/ha: 125 g ai/ha
Summary of the method: as §2

corn (Zea mays) [13] = assay: Test A postemergence; type: in vivo; conditions: Zea mays, post-emergence, 240 h, 0 to 100 scale; for Corn plant response rating (crop injury, 0 = no effect, 100 = complete kill) at 125 g/ha: 125 g ai/ha
Summary of the method: as §2

[14] = tested on: giant foxtail (Setaria faberii); assay: Test A postemergence; type: in vivo; conditions: Setaria faberi, post-emergence, 240 h, 0 to 100 scale, read-out: Plant response rating, Foxtail, Giant; for pest or weed control at 125 g/ha: 125 g ai/ha
Summary of the method: as §2

[15] = tested on: large (Lg) crabgrass (Digitaria sanguinalis); assay: Test A postemergence; type: in vivo; conditions: 0 to 100 scale
Summary of the method: as §2

[16] = tested on: morningglory (Ipomoea spp.); assay: Test A postemergence; type: in vivo; conditions: 0 to 100 scale
Summary of the method: as §2

[17] = tested on: pigweed (Amaranthus retroflexus); assay: Test A postemergence; type: in vivo; conditions: Amaranthus retroflexus, post-emergence, 240 h, 0 to 100 scale, read-out: Plant response rating, Pigweed; for pest or weed control at 125 g/ha: 125 g ai/ha
Summary of the method: as §2

[18] = tested on: velvetleaf (Abutilon theophrasti); assay: Test A postemergence; type: in vivo; conditions: 0 to 100 scale
Summary of the method: as §2

[19] = tested on: wheat (Triticum aestivum); assay: Test A postemergence; type: in vivo; conditions: Triticum aestivum, post-emergence, 240 h, 0 to 100 scale, read-out: Plant response rating, Wheat; for plant injury at 125 g/ha: 125 g ai/ha
Summary of the method: as §2

[20] = tested on: Italian ryegrass (Lolium multiflorum); assay: Test A preemergence; type: in vivo; conditions: Lolium multiflorum, pre-emergence, 240 h, 0 to 100 scale (0 no effect, 100 complete control), read-out: Ryegrass, Italian plant response rating
Summary of the method: as §2

kochia (Kochia scoparia) [21] = assay: Test A preemergence; type: in vivo; conditions: Bassia scoparia, pre-emergence, 240 h, 0 to 100 scale (0 no effect, 100 complete control), read-out: Kochia plant response rating
Summary of the method: as §2

[22] = tested on: ragweed (common ragweed, Ambrosia elatior); assay: Test A preemergence; type: in vivo; conditions: Ambrosia artemisiifolia, pre-emergence, 240 h, 0 to 100 scale (0 no effect, 100 complete control), read-out: Ragweed plant response rating
Summary of the method: as §2

[23] = tested on: Italian ryegrass (Lolium multiflorum); assay: Test A postemergence; type: in vivo; conditions: Lolium multiflorum, post-emergence, 240 h, 0 to 100 scale, read-out: Plant response rating, Ryegrass, Italian
Summary of the method: as §2

[24] = tested on: blackgrass (Alopecurus myosuroides); assay: Test A postemergence; type: in vivo; conditions: Alopecurus myosuroides, post-emergence, 240 h, 0 to 100 scale, read-out: Plant response rating, Blackgrass
Summary of the method: as §2

[25] = tested on: galium (catchweed bedstraw, Galium aparine); assay: Test A postemergence; type: in vivo; conditions: Galium, post-emergence, 240 h, 0 to 100 scale, read-out: Plant response rating, Galium
Summary of the method: as §2

kochia (Kochia scoparia) [26] = assay: Test A postemergence; type: in vivo; conditions: Bassia scoparia, post-emergence, 240 h, 0 to 100 scale, read-out: Plant response rating, Kochia
Summary of the method: as §2

[27] = tested on: ragweed (common ragweed, Ambrosia elatior); assay: Test A postemergence; type: in vivo; conditions: Ambrosia artemisiifolia, post-emergence, 240 h, 0 to 100 scale, read-out: Plant response rating, Ragweed
Summary of the method: as §2

[28] = 0 to 100 scale, read-out: Plant response rating, Barnyardgrass

## N#Cc1cccc(Oc2ncc(F)cn2)c1Oc1ncc(F)cn1 [Compound 2, 2,3-bis[(5-fluoro-2-pyrimidinyl)oxy]benzonitrile]
[1]
  pest or weed control at 250 g/ha: 20%
[2]
  pest or weed control at 250 g/ha: 70%
Rice (Oryza sativa)
  plant injury at 250 g/ha: 15%
[3]
  pest or weed control at 250 g/ha: 60%
[4]; [28]
  pest or weed control at 125 g/ha: 20%
[4]; 500 g ai/ha, 0 to 100 scale, read-out: Plant response rating, Barnyardgrass
  pest or weed control at 500 g/ha: 100%
Corn (Zea mays) [5]; 125 g ai/ha
  Plant response rating, Corn: 20
Corn (Zea mays) [5]; 500 g ai/ha
  Plant response rating, Corn: 60
[6]; 0 to 100 scale, read-out: Plant response rating, Foxtail, Giant
  pest or weed control at 125 g/ha: 100%
[6]; 500 g ai/ha, 0 to 100 scale, read-out: Plant response rating, Foxtail, Giant
  pest or weed control at 500 g/ha: 100%
[7]; 125 g ai/ha
  Plant response rating, Crabgrass, Large: 100
[7]; 500 g ai/ha
  Plant response rating, Crabgrass, Large: 100
[8]; 125 g ai/ha
  Plant response rating, Morningglory: 50
[8]; 500 g ai/ha
  Plant response rating, Morningglory: 100
[9]; 0 to 100 scale, read-out: Plant response rating, Pigweed
  pest or weed control at 125 g/ha: 100%
[9]; 500 g ai/ha, 0 to 100 scale, read-out: Plant response rating, Pigweed
  pest or weed control at 500 g/ha: 100%
[10]; 125 g ai/ha
  Plant response rating, Velvetleaf: 40
[10]; 500 g ai/ha
  Plant response rating, Velvetleaf: 100
[11]; 125 g ai/ha
  Plant response rating, Wheat: 20
[11]; 500 g ai/ha
  Plant response rating, Wheat: 30
[12]
  pest or weed control at 125 g/ha: 20%
[12]; 500 g ai/ha
  pest or weed control at 500 g/ha: 90%
Corn (Zea mays) [13]
  Corn plant response rating (crop injury, 0 = no effect, 100 = complete kill) at 125 g/ha: 0%
Corn (Zea mays) [13]; 500 g ai/ha
  Corn plant response rating (crop injury, 0 = no effect, 100 = complete kill) at 500 g/ha: 90%
[14]
  pest or weed control at 125 g/ha: 40%
[14]; 500 g ai/ha
  pest or weed control at 500 g/ha: 100%
[15]; 125 g ai/ha
  Plant response rating, Crabgrass, Large: 30
[15]; 500 g ai/ha
  Plant response rating, Crabgrass, Large: 100
[16]; 125 g ai/ha
  Plant response rating, Morningglory: 60
[16]; 500 g ai/ha
  Plant response rating, Morningglory: 90
[17]
  pest or weed control at 125 g/ha: 90%
[17]; 500 g ai/ha
  pest or weed control at 500 g/ha: 100%
[18]; 125 g ai/ha
  Plant response rating, Velvetleaf: 70
[18]; 500 g ai/ha
  Plant response rating, Velvetleaf: 90
[19]
  plant injury at 125 g/ha: 20%
[19]; 500 g ai/ha
  plant injury at 500 g/ha: 90%

## Fc1cnc(Oc2c(F)ccc(F)c2Oc2ncc(Cl)cn2)nc1 [Compound 28]
[20]; 31 g ai/ha
  pest or weed control at 31 g/ha: 0%
[20]; 125 g ai/ha
  pest or weed control at 125 g/ha: 0%
[4]; 31 g ai/ha, 0 to 100 scale (0 no effect, 100 complete control), read-out: Barnyardgrass plant response rating
  pest or weed control at 31 g/ha: 0%
[4]; [28]
  pest or weed control at 125 g/ha: 10%
[6]; 31 g ai/ha, 0 to 100 scale (0 no effect, 100 complete control), read-out: Foxtail, Giant plant response rating
  pest or weed control at 31 g/ha: 10%
[6]; 0 to 100 scale (0 no effect, 100 complete control), read-out: Foxtail, Giant plant response rating
  pest or weed control at 125 g/ha: 40%
Kochia (Kochia scoparia) [21]; 31 g ai/ha
  pest or weed control at 31 g/ha: 0%
Kochia (Kochia scoparia) [21]; 125 g ai/ha
  pest or weed control at 125 g/ha: 20%
[9]; 31 g ai/ha, 0 to 100 scale (0 no effect, 100 complete control), read-out: Pigweed plant response rating
  pest or weed control at 31 g/ha: 50%
[9]; 0 to 100 scale (0 no effect, 100 complete control), read-out: Pigweed plant response rating
  pest or weed control at 125 g/ha: 80%
[22]; 31 g ai/ha
  pest or weed control at 31 g/ha: 0%
[22]; 125 g ai/ha
  pest or weed control at 125 g/ha: 0%
[23]; 31 g ai/ha
  pest or weed control at 31 g/ha: 0%
[23]; 125 g ai/ha
  pest or weed control at 125 g/ha: 0%
[12]; 31 g ai/ha
  pest or weed control at 31 g/ha: 0%
[12]
  pest or weed control at 125 g/ha: 0%
[24]; 31 g ai/ha
  pest or weed control at 31 g/ha: 0%
[24]; 125 g ai/ha
  pest or weed control at 125 g/ha: 20%
Corn (Zea mays) [13]; 31 g ai/ha
  Corn plant response rating (crop injury, 0 = no effect, 100 = complete kill) at 31 g/ha: 0%
Corn (Zea mays) [13]
  Corn plant response rating (crop injury, 0 = no effect, 100 = complete kill) at 125 g/ha: 0%
[25]; 31 g ai/ha
  pest or weed control at 31 g/ha: 20%
[25]; 125 g ai/ha
  pest or weed control at 125 g/ha: 70%
[14]; 31 g ai/ha
  pest or weed control at 31 g/ha: 0%
[14]
  pest or weed control at 125 g/ha: 20%
Kochia (Kochia scoparia) [26]; 31 g ai/ha
  pest or weed control at 31 g/ha: 30%
Kochia (Kochia scoparia) [26]; 125 g ai/ha
  pest or weed control at 125 g/ha: 70%
[17]; 31 g ai/ha
  pest or weed control at 31 g/ha: 50%
[17]
  pest or weed control at 125 g/ha: 60%
[27]; 31 g ai/ha
  pest or weed control at 31 g/ha: 10%
[27]; 125 g ai/ha
  pest or weed control at 125 g/ha: 30%
[19]; 31 g ai/ha
  plant injury at 31 g/ha: 0%
[19]
  plant injury at 125 g/ha: 0%
other
  melting point: 94 to 98 °C
